These are literature values, as cited in patent US20110251243A1, “Method and Kit for Assessing a Patient's Genetic Information, Lifestyle and Environment Conditions, and Providing a Tailored Therapeutic Regime” (priority 2005, published 2011).

The subject of data set [1] is smokers. The following applies: women with at least one Taq1A allele compared to women with both common alleles.
For data set [2] the following is noted: in the majority of people.
The subject of data set [3] is patients.

Like-named read-outs stand apart in the source and are kept apart here.

In the case of `CC(NC(C)(C)C)C(=O)c1cccc(Cl)c1` (stereo not shown) [bupropion], the “smoking status at 12 months” value in data set [1] is “more likely to be still smoking”.
`CN1CCCC1c1cccnc1` (stereo not shown) [nicotine]: the “share metabolized to cotinine by C-oxidation” value in data set [2] is 70% to 80.
On to `CCc1c2c(nc3ccc(OC(=O)N4CCC(N5CCCCC5)CC4)cc13)-c1cc3c(c(=O)n1C2)COC(=O)[C@]3(O)CC` [Irinotecan], for which, in data set [3] (heterozygotes (6/7)), the chance of neutropenia was 12.5%. For the same compound, in data set [3] (homozygous 7/7 genotype in UGT1A1*28), the likelihood of neutropenia is listed as 50%. For the same compound, in data set [3] (in vivo), the fatality entry is listed as “up to 5%”; the “severe diarrhoea and neutropenia, share of patients” value is 20-35%. The chance of neutropenia result in data set [3] (wild type (homozygous 6/6 genotype)) is “roughly 0%”.
